Data reported in patent US6028195A, “Piperazine derivatives and process for the preparation thereof” (Samjin Pharmaceutical Co., Ltd., priority 1996, dated 2000).
Converted amounts (≈) assume the structure as drawn. Where two headings read alike, the source gives them in different places.

Legend:
[1] = test system: A549 (human non-small lung cell); assay: SRB assay, in vitro antitumor effect against A549; format: cell-based; details: Homo sapiens
In short: (§1)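 Cells seeded at 5×10^3–2×10^4 per well and grown 24 h at 37 °C, then exposed to compound (DMSO <0.5% final) for 48 h. TCA fixation, 0.4% SRB staining, OD 520 nm; time-zero plates read at dosing; response computed as 100×(T−Tz)/(C−Tz) or 100×(T−Tz)/Tz when T<Tz.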

SKOV-3 (human ovarian) = assay: SRB assay, in vitro antitumor effect against SKOV-3; format: cell-based; details: Homo sapiens; SK-OV-3, 48 hours; read-out: ED50 (the source's name)
In short: as §1

SKMEL-2 (human melanoma) = assay: SRB assay, in vitro antitumor effect against SKMEL-2; format: cell-based; details: Homo sapiens; SK-MEL-2, 48 hours; read-out: ED50 (the source's name)
In short: as §1

XF 498 (human CNS) = assay: SRB assay, in vitro antitumor effect against XF 498; format: cell-based; details: Homo sapiens, XF498; XF-498, 48 hours; read-out: ED50 (the source's name)
In short: as §1

HCT-15 (human colon) = assay: SRB assay, in vitro antitumor effect against HCT-15; format: cell-based; details: Homo sapiens; HCT 15, 48 hours; read-out: ED50 (the source's name)
In short: as §1

[2] = test system: mouse leukemia P388 cells; assay: In vivo antitumor effects against mouse leukemia P388 cells in BDF1 mice; details: P388, ip, abdominal cavity
Protocol: In vivo antitumor effects against mouse leukemia P388 cells.
1) Leukemia P388 cells being transfer-cultured successively in DBA/2 mouse, were grafted into each mouse of a group comprising 8 mice of 6 week old BDF1 mouse with the dose of 1×10^6 cells/0.1 ml. […]
3) With observation everyday, survival times of tested mice were measured. Antitumor activities was determined in such a manner that the increasing ratio(T/C%) of average survival days of drug-treated groups compared with the control group was calculated using the mean survival times of each tested groups.

[3] = Acute toxicity test (LD50), Litchfield-Wilcoxon method; details: mouse, in vivo, ip, male ICR mice, 14 days
Protocol: Acute toxicity test (LD50): Litchfield-Wilcoxon method.
6 weeks old ICR mice(male 30±2.0 g) were fed freely with solid feed and water at room temperature, 23±1° C. and at humidity 60±5%. Sample drugs were injected into the abdominal cavities of mice, while each group comprises 6 mice. Observed during 14 days, external appearances and life or dead were recorded, and then, visible pathogenies were observed from dead animals by dissection. LD50 value was calculated by Litchfiled-wilcoxon method.

[4] = A549, 48 hours, read-out: ED50 (the source's name)
[5] = on days 1, 5, 9, read-out: T/C(%)
[6] = nine everyday, read-out: T/C(%)
[7] = on days 1, 4, 8, read-out: T/C(%)

SMILES | IC50 [1, 4] [µg/mL] | IC50 (SKOV-3 (human ovarian)) [µg/mL] | IC50 (SKMEL-2 (human melanoma)) [µg/mL] | IC50 (XF 498 (human CNS)) [µg/mL] | IC50 (HCT-15 (human colon)) [µg/mL] | response vs control in vivo at 50 mg/kg [2, 5] [%] | response vs control in vivo at 100 mg/kg [2, 5] [%] | LD50 at 336 h [3] [mg/kg] | response vs control in vivo at 10 mg/kg [2, 6] [%] | response vs control in vivo at 25 mg/kg [2, 6] [%] | response vs control in vivo at 50 mg/kg [2, 6] [%] | response vs control in vivo at 200 mg/kg [2, 5] [%] | IC50 ([1]; A549, 48 h, read-out: ED50) [µg/mL] | response vs control in vivo at 50 mg/kg [2, 7] [%] | response vs control in vivo at 100 mg/kg [2, 7] [%] | response vs control in vivo at 200 mg/kg [2, 7] [%] | response vs control in vivo at 100 mg/kg [2, 6] [%]
COc1nc2ccccc2cc1NC(=O)N1CCN(c2cc(C)cc(C)c2)CC1 [Example 82, 1-[(2-Methoxyquinolin-3-yl)aminocarbonyl]-4-(3,5-dimethylphenyl)piperazine] | 0.0676 (≈ 0.173 µM) | 0.0249 (≈ 0.0638 µM) | 0.0754 (≈ 0.193 µM) | 0.0479 (≈ 0.123 µM) | 0.0346 (≈ 0.0886 µM) | 100 | 127 | 700 |  |  |  |  |  |  |  |  | 
C=Cc1cc(NC(=O)N2CCN(c3cc(C)cc(C)c3)CC2)c(OC)nc1C [Example 74, 1-[(2-Methoxy-6-methyl-5-vinylpyridin-3-yl)aminocarbonyl]-4-(3,5-dimethylphenyl)piperazine] | 0.016 (≈ 0.0421 µM) | 0.0138 (≈ 0.0363 µM) | 0.02 (≈ 0.0526 µM) | 0.026 (≈ 0.0683 µM) | 0.021 (≈ 0.0552 µM) |  |  | 361 | 140 | 150 | 250 |  |  |  |  |  | 
COc1cc(OC)cc(N2CCN(C(=O)Nc3cc(C(C)O)c(C)nc3OC)CC2)c1 (stereo not shown) [Example 56, 1-{[5-(1-Hydroxyethyl)-2-methoxy-6-methylpyridin-3-yl]aminocarbonyl}-4-(3,5-dimethoxyphenyl)piperazine] | 0.017 (≈ 0.0395 µM) | 0.0027 (≈ 0.00627 µM) | 0.01 (≈ 0.0232 µM) | 0.013 (≈ 0.0302 µM) | 0.045 (≈ 0.105 µM) | 118 | 141 | 410 | 140 | 145 | 165 | 227 |  |  |  |  | 
CCCc1nc(OC)c(NC(=O)N2CCN(c3cc(OC)cc(OC)c3)CC2)cc1C [Example 15, 1-[(2-Methoxy-5-methyl-6-propylpyridin-3-yl)aminocarbonyl]-4-(3,5-dimethoxyphenyl)piperazine] | 0.002 (≈ 0.00467 µM) | 0.05 (≈ 0.117 µM) | 0.052 (≈ 0.121 µM) | 0.035 (≈ 0.0817 µM) | 0.038 (≈ 0.0887 µM) |  |  | 190 | 110 | 150 |  |  |  |  |  |  | 
C=Cc1cc(NC(=O)N2CCN(c3cc(OC)cc(OC)c3)CC2)c(OC)nc1C [Example 73, 1-[(2-Methoxy-6-methyl-5-vinylpyridin-3-yl)aminocarbonyl]-4-(3,5-dimethoxyphenyl)piperazine] | 0.01 (≈ 0.0242 µM) | 0.0054 (≈ 0.0131 µM) | 0.02 (≈ 0.0485 µM) | 0.013 (≈ 0.0315 µM) | 0.012 (≈ 0.0291 µM) |  |  | 250 | 140 | 150 | 180 |  |  |  |  |  | 
COc1nc(C)c(C(C)O)cc1NC(=O)N1CCN(c2cc(C)cc(C)c2)CC1 (stereo not shown) [Example 57, 1-{[5-(1-Hydroxyethyl)-2-methoxy-6-methylpyridin-3-yl]aminocarbonyl}-4-(3,5-dimethylphenyl)piperazine] | 0.27 (≈ 0.678 µM) | 0.15 (≈ 0.376 µM) | 0.18 (≈ 0.452 µM) | 0.22 (≈ 0.552 µM) | 0.25 (≈ 0.627 µM) |  |  | 455 |  |  |  |  |  |  |  |  | 
COc1ccc(C)c(N2CCN(C(=O)Nc3cc(C)c(C)cc3OC)CC2)c1 [Example 184, 1-[(4,5-Dimethyl-2-methoxyphenyl)aminocarbonyl]-4-(5-methoxy-2-methylphenyl)piperazine] | 0.28 (≈ 0.73 µM) | 0.34 (≈ 0.887 µM) | 0.17 (≈ 0.443 µM) | 0.12 (≈ 0.313 µM) | 0.2 (≈ 0.522 µM) |  |  | 309 |  |  |  |  |  |  |  |  | 
COc1cc(OC)cc(N2CCN(C(=O)Nc3cc4ccccc4nc3OC)CC2)c1 [Example 81, 1-[(2-Methoxyquinolin-3-yl)aminocarbonyl]-4-(3,5-dimethoxyphenyl)piperazine] |  | 0.0007 (≈ 0.00166 µM) | 0.0107 (≈ 0.0253 µM) | 0.0097 (≈ 0.023 µM) | 0.0054 (≈ 0.0128 µM) | 127 | 146 | 1600 | 140 | 140 | 210 | 218 | 0.0032 (≈ 0.00757 µM) |  |  |  | 
CCCc1nc(OC)c(NC(=O)N2CCN(c3cc(C)cc(C)c3)CC2)cc1C [Example 16, 1-[(2-Methoxy-5-methyl-6-propylpyridin-3-yl)aminocarbonyl]-4-(3,5-dimethylphenyl)piperazine] | 0.008 (≈ 0.0202 µM) | 0.04 (≈ 0.101 µM) | 0.038 (≈ 0.0958 µM) | 0.005 (≈ 0.0126 µM) | 0.061 (≈ 0.154 µM) |  |  | 283 |  | 110 | 165 |  |  |  |  |  | 
CCCc1nc(OC)c(NC(=S)N2CCN(c3cccc(O)c3)CC2)cc1C [Example 28, 1-[(2-Methoxy-5-methyl-6-propylpyndin-3-yl)aminothiocarbonyl]-4-(3-hydroxyphenyl)piperazine] | 0.06 (≈ 0.15 µM) | 0.07 (≈ 0.175 µM) | 0.001 (≈ 0.0025 µM) | 0.41 (≈ 1.02 µM) | 0.05 (≈ 0.125 µM) |  |  | > 2000 |  |  |  |  |  |  |  |  | 
COc1cc(C)c(C)cc1NC(=O)N1CCN(c2cc(C)cc(C)c2)CC1 [Example 172, 1-[(4,5-Dimethyl-2-methoxyphenyl)aminocarbonyl]-4-(3,5-dimethylphenyl)piperazine] | 0.0047 (≈ 0.0128 µM) | 0.0097 (≈ 0.0264 µM) | 0.0233 (≈ 0.0634 µM) | 0.0086 (≈ 0.0234 µM) | 0.018 (≈ 0.049 µM) |  |  | 723 |  |  |  |  |  | 118 | 127 | 191 | 
COc1nc(C)c(C)cc1NC(=S)N1CCN(c2cc(C)cc(C)c2)CC1 [Example 22, 1-[(5,6-Dimethyl-2-methoxypyridin-3-yl)aminothiocarbonyl]-4-(3,5-dimethylphenyl)piperazine] | 0.0009 (≈ 0.00234 µM) | 0.006 (≈ 0.0156 µM) | 0.027 (≈ 0.0702 µM) | 0.0053 (≈ 0.0138 µM) | 0.01 (≈ 0.026 µM) |  |  | > 2000 |  | 110 | 140 |  |  |  |  |  | 150
COc1cc(C)c(C)cc1NC(=O)N1CCN(c2cccc(OC(C)=O)c2)CC1 [Example 182, 1-[(4,5-Dimethyl-2-methoxyphenyl)aminocarbonyl]-4-(3-acetoxyphenyl)piperazine] |  |  |  |  |  |  |  | 348 |  |  |  |  |  |  |  |  | 
CCCc1cc(NC(=O)N2CCN(c3cc(OC)cc(OC)c3)CC2)c(OC)nc1C [Example 8, 1-[(2-Methoxy-6-methyl-5-propylpyridin-3-yl)aminocarbonyl]-4-(3,5-dimethoxyphenyl)piperazine] |  |  |  |  |  |  | 104 | 707 |  |  |  | 141 |  |  |  |  | 
